Source: PubChem BioAssay (NCI)
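1) Cells in 96-well plates. 2) Compound, 48 h, 5 concentrations. 3) Linear interpolation between surrounding doses. 4) Unreached endpoint = highest concentration. The concentration for 50% growth inhibition is given as GI50. Definition used: TGI = concentration required for complete inhibition of growth.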

What was measured:
Experiment in all cases: inhibition of tumour cell growth, NCI panel, 48 h
[1] = test system: SK-MEL-5 melanoma
[2] = test system: MCF7 breast
[3] = test system: HCT-116 colon
[4] = test system: UO-31 renal
[5] = test system: SF-295 CNS
[6] = test system: HCC-2998 colon
[7] = test system: HOP-92 NSCLC
[8] = test system: CCRF-CEM leukemia
[9] = test system: EKVX NSCLC
[10] = test system: NCI-H23 lung
[11] = test system: SW-620 colon
[12] = test system: SN12C renal
[13] = test system: OVCAR-5 ovarian
[14] = test system: COLO 205 colon
[15] = test system: A549 NSCLC
[16] = test system: MALME-3M melanoma
[17] = test system: A498 renal
[18] = test system: MDA-MB-231 breast
[19] = test system: MOLT-4 leukemia
[20] = test system: HCT-15 colon
[21] = test system: NCI-H226 lung
[22] = test system: SR leukemia
[23] = test system: NCI/ADR-RES ovarian
[24] = test system: U251 CNS
[25] = test system: T-47D breast
[26] = test system: OVCAR-3 ovarian
[27] = test system: ACHN renal
[28] = test system: UACC-62 melanoma
[29] = test system: M14 melanoma
[30] = test system: 786-0 renal
[31] = test system: SNB-75 CNS
[32] = test system: HL-60(TB) leukemia
[33] = test system: UACC-257 melanoma
[34] = test system: SF-539 CNS
[35] = test system: SNB-19 CNS
[36] = test system: RPMI-8226 leukemia
[37] = test system: HOP-62 NSCLC
[38] = test system: PC-3 prostate
[39] = test system: BT-549 breast
[40] = test system: IGROV1 ovarian
[41] = test system: NCI-H460 lung
[42] = test system: HT29 colon
[43] = test system: SK-MEL-28 melanoma
[44] = test system: DU-145 prostate
[45] = test system: LOX IMVI melanoma
[46] = test system: OVCAR-8 ovarian
[47] = test system: SF-268 CNS
[48] = test system: OVCAR-4 ovarian
[49] = test system: RXF 393 renal
[50] = test system: K-562 leukemia
[51] = test system: KM12 colon
[52] = test system: SK-OV-3 ovarian
[53] = test system: MDA-MB-435
[54] = test system: TK-10 renal
[55] = test system: SK-MEL-2 melanoma
[56] = test system: NCI-H522 lung
[57] = test system: CAKI-1 renal
[58] = test system: HS 578T breast

## Cc1cc([N+](=O)[O-])c(NS(=O)(=O)c2cccc(C(=O)O)c2)cc1-c1cccnc1
[1]
  GI50: > 100 µM
  TGI: > 100 µM
[2]
  GI50: > 100 µM
  TGI: > 100 µM
[3]
  GI50: > 100 µM
  TGI: > 100 µM
[4]
  GI50: > 100 µM
  TGI: > 100 µM
[5]
  GI50: > 100 µM
  TGI: > 100 µM
[6]
  GI50: > 100 µM
  TGI: > 100 µM
[7]
  GI50: > 100 µM
  TGI: > 100 µM
[8]
  GI50: > 100 µM
  TGI: > 100 µM
[9]
  GI50: > 100 µM
  TGI: > 100 µM
[10]
  GI50: > 100 µM
  TGI: > 100 µM
[11]
  GI50: > 100 µM
  TGI: > 100 µM
[12]
  GI50: > 100 µM
  TGI: > 100 µM
[13]
  GI50: > 100 µM
  TGI: > 100 µM
[14]
  GI50: > 100 µM
  TGI: > 100 µM
[15]
  GI50: > 100 µM
  TGI: > 100 µM
[16]
  GI50: > 100 µM
  TGI: > 100 µM
[17]
  GI50: > 100 µM
  TGI: > 100 µM
[18]
  GI50: > 100 µM
  TGI: > 100 µM
[19]
  GI50: > 100 µM
  TGI: > 100 µM
[20]
  GI50: > 100 µM
  TGI: > 100 µM
[21]
  GI50: > 100 µM
  TGI: > 100 µM
[22]
  GI50: > 100 µM
  TGI: > 100 µM
[23]
  GI50: > 100 µM
  TGI: > 100 µM
[24]
  GI50: > 100 µM
  TGI: > 100 µM
[25]
  GI50: > 100 µM
  TGI: > 100 µM
[26]
  GI50: > 100 µM
  TGI: > 100 µM
[27]
  GI50: > 100 µM
  TGI: > 100 µM
[28]
  GI50: > 100 µM
  TGI: > 100 µM
[29]
  GI50: > 100 µM
  TGI: > 100 µM
[30]
  GI50: > 100 µM
  TGI: > 100 µM
[31]
  GI50: > 100 µM
  TGI: > 100 µM
[32]
  GI50: > 100 µM
  TGI: > 100 µM
[33]
  GI50: > 100 µM
  TGI: > 100 µM
[34]
  GI50: > 100 µM
  TGI: > 100 µM
[35]
  GI50: > 100 µM
  TGI: > 100 µM
[36]
  GI50: > 100 µM
  TGI: > 100 µM
[37]
  GI50: > 100 µM
  TGI: > 100 µM
[38]
  GI50: > 100 µM
  TGI: > 100 µM
[39]
  GI50: > 100 µM
  TGI: > 100 µM
[40]
  GI50: > 100 µM
  TGI: > 100 µM
[41]
  GI50: > 100 µM
  TGI: > 100 µM
[42]
  GI50: > 100 µM
  TGI: > 100 µM
[43]
  GI50: > 100 µM
  TGI: > 100 µM
[44]
  GI50: > 100 µM
  TGI: > 100 µM
[45]
  GI50: > 100 µM
  TGI: > 100 µM
[46]
  GI50: > 100 µM
  TGI: > 100 µM
[47]
  GI50: > 100 µM
  TGI: > 100 µM
[48]
  GI50: > 100 µM
  TGI: > 100 µM
[49]
  GI50: > 100 µM
  TGI: > 100 µM
[50]
  GI50: > 100 µM
  TGI: > 100 µM
[51]
  GI50: 35.1 µM
  TGI: > 100 µM
[52]
  GI50: > 100 µM
  TGI: > 100 µM
[53]
  GI50: > 100 µM
  TGI: > 100 µM
[54]
  GI50: > 100 µM
  TGI: > 100 µM

## O=C(/C=C/Sc1cc(C(F)(F)F)cc(C(F)(F)F)c1)c1ccc(Cl)cc1
[1]
  GI50: 17.4 µM
  TGI: 32.9 µM
[2]
  GI50: 13.6 µM
  TGI: 35.8 µM
[3]
  GI50: 1.83 µM
  TGI: 4.09 µM
[4]
  GI50: 2.85 µM
  TGI: 6.05 µM
[5]
  GI50: 13.6 µM
  TGI: 29.6 µM
[6]
  GI50: 19.2 µM
  TGI: 33.4 µM
[8]
  GI50: 0.271 µM
  TGI: 1.74 µM
[9]
  GI50: 14.3 µM
  TGI: 30.5 µM
[10]
  GI50: 17 µM
  TGI: 31.3 µM
[11]
  GI50: 17 µM
  TGI: 41.3 µM
[12]
  GI50: 1.71 µM
  TGI: 3.46 µM
[13]
  GI50: 18.6 µM
  TGI: 33.7 µM
[14]
  GI50: 2.1 µM
  TGI: 6.6 µM
[15]
  GI50: 16.1 µM
  TGI: 32.8 µM
[16]
  GI50: 9.13 µM
  TGI: 23.4 µM
[17]
  GI50: 15.9 µM
  TGI: 29.3 µM
[55]
  GI50: 31.1 µM
  TGI: 63.1 µM
[56]
  GI50: 3.42 µM
  TGI: 12.4 µM
[18]
  GI50: 2.51 µM
  TGI: 8.67 µM
[19]
  GI50: 1.64 µM
  TGI: 9.12 µM
[20]
  GI50: 3.04 µM
  TGI: 11.6 µM
[21]
  GI50: 2.49 µM
  TGI: 7.32 µM
[22]
  GI50: 2.02 µM
  TGI: 5.32 µM
[23]
  GI50: 23.4 µM
  TGI: 46.3 µM
[24]
  GI50: 4.65 µM
  TGI: 16.2 µM
[25]
  GI50: 1.82 µM
  TGI: 4.09 µM
[26]
  GI50: 1.48 µM
  TGI: 4.19 µM
[27]
  GI50: 1.78 µM
  TGI: 3.36 µM
[28]
  GI50: 4.58 µM
  TGI: 15.6 µM
[29]
  GI50: 1.67 µM
  TGI: 3.36 µM
[57]
  GI50: 3.57 µM
  TGI: 9.43 µM
[30]
  GI50: 2.66 µM
  TGI: 9.84 µM
[31]
  GI50: 12.8 µM
  TGI: 25.7 µM
[32]
  GI50: 2 µM
  TGI: 11.4 µM
[33]
  GI50: 14.1 µM
  TGI: 27.5 µM
[34]
  GI50: 14.4 µM
  TGI: 30.9 µM
[35]
  GI50: 12.8 µM
  TGI: 25.4 µM
[36]
  GI50: 0.197 µM
  TGI: 1.02 µM
[58]
  GI50: 16.5 µM
  TGI: 43.7 µM
[37]
  GI50: 18.3 µM
  TGI: 32.7 µM
[38]
  GI50: 2.42 µM
  TGI: 5.97 µM
[39]
  GI50: 11.5 µM
  TGI: 23.8 µM
[40]
  GI50: 2.38 µM
  TGI: 6.55 µM
[41]
  GI50: 16.6 µM
  TGI: 36.6 µM
[42]
  GI50: 6.93 µM
  TGI: 23.9 µM
[43]
  GI50: 4.74 µM
  TGI: 17.1 µM
[44]
  GI50: 12.3 µM
  TGI: 25.1 µM
[45]
  GI50: 1.43 µM
  TGI: 2.73 µM
[46]
  GI50: 9.9 µM
  TGI: 45.3 µM
[47]
  GI50: 14.4 µM
  TGI: 29.6 µM
[48]
  GI50: 13.5 µM
  TGI: 30.7 µM
[49]
  GI50: 12 µM
  TGI: 25.3 µM
[50]
  GI50: 2.92 µM
  TGI: 24.6 µM
[51]
  GI50: 13.5 µM
  TGI: 27.8 µM
[52]
  GI50: 15.1 µM
  TGI: 31.3 µM
[53]
  GI50: 4.22 µM
  TGI: 15.3 µM
[54]
  GI50: 22.3 µM
  TGI: 37.8 µM
